Assay results reported in patent publication US9364496B2 (ONCOGENEX TECHNOLOGIES INC., priority 2013, dated 2016).
Several values for one entry are separate records, joined by “and”; a condition that tells them apart may be missing. Equal values may be shown once. Marks after values point to notes of the source that are not given here. Oligonucleotides are written 5' to 3', each unit as a sugar letter and its base; * is a phosphorothioate linkage, no mark a phosphodiester; rarer units and linkages stand in square brackets, end groups in braces. Plain capitals give the bases only. e = 2'-O-(2-methoxyethyl) (MOE); [5mC] = 5-methylcytosine; d = 2'-deoxy (DNA)

Experiments:
breast cancer = assay type: in vivo, human; conditions: each group; loading doses then custirsen with a chemotherapeutic agent
Description: At least 50 breast cancer patients are separated into two groups.

[1] = tested on: RPMI 8226 (human myeloma) xenograft; assay: In vivo activity of custirsen with Velcade, RPMI 8226 xenograft (Example 14); conditions: for % of baseline / Δ %: weight; for Day 41 Δ % (weight) / Day 41 Δ volume / Day 41 Δ weight / Day 45 Δ % (weight) / Day 45 Δ volume / Day 45 Δ weight / Day 27 Δ % (weight) / Day 27 Δ volume / Day 27 Δ weight / Day 34 Δ % (weight) / Day 34 Δ volume / Day 34 Δ weight: vs Day 20
Method: The cells were implanted subcutaneously into female SCID mice with 7×10^6 cells inoculum.
Tumors and body weights were measured weekly until termination of the study on day 71. Response to treatment was evaluated for tumor growth inhibition (TGI) and tumor growth delay (TGD).
70 CB.17 SCID female mice, 4-6 weeks old, 16-20 grams, obtained from Harlan animal breeding center.
Sample from the cell suspension was taken for counting (0.3 ml in duplicates for CEDEX) before spun down. Cell viability was 85.6% and live cell concentration was 167×10^5 cells/ml. The pellet was resuspended in HBSS to a final volume of 8 ml.
Tumors were implanted subcutaneously with RPMI-8226 cells into the right flank of the mouse on Day 0. Each animal received a s.c. injection 7×10^6 cells in 0.1 ml suspension. On day 20, mice were sorted by the optimal tumor volume ([…]) and were allocated into 5 groups of 10 mice. Mice were individually tagged and their tumor volume and body weight were monitored weekly during the study. Tumor size was measured by caliper and calculated using the formula: […]
The treatment started on […] (0.2 ml per 20 grams v/w) and continued till day 52, after which the remaining mice were left for observation until day 71.

[2] = Custirsen 40 mg/kg ip qd*5, twk, day 51
[3] = OGX 40 ip qd*5, twk, Day 48, group mean
[4] = OGX 40 ip qd*5, twk, Day 48, individual mice, listed as OGX
[5] = OGX 40 ip qd*5, twk, Day 51, group mean
[6] = OGX 40 ip qd*5, twk, Day 51, individual mice, listed as OGX
[7] = OGX 40 ip qd*5, twk, Day 58, individual mice, listed as OGX
[8] = OGX 40 ip qd*5, twk, Day 63, individual mice, listed as OGX
[9] = OGX 40 ip qd*5, twk, earlier day (day not given), group mean
[10] = OGX 40 ip qd*5, twk, earlier day (day not given), group mean, tumor
[11] = OGX 40 ip qd*5, twk, earlier day (day not given), individual mouse, listed as OGX
[12] = OGX 40 ip qd*5, twk, earlier day (day not given), individual mouse, tumor, listed as OGX
[13] = OGX 40 ip qd*5, twk, group Mean, n 9
[14] = OGX 40 ip qd*5, twk, group Mean, n 10
[15] = OGX 40 ip qd*5, twk, individual mouse, listed as OGX
[16] = OGX 40 ip qd*5, twk, later day (day not given), group mean
[17] = OGX 40 ip qd*5, twk, later day (day not given), group mean, tumor
[18] = OGX 40 ip qd*5, twk, later day (day not given), individual mouse, listed as OGX
[19] = OGX 40 ip qd*5, twk, later day (day not given), individual mouse, tumor, listed as OGX

What does the source list for “Custirsen: anti-clusterin antisense oligonucleotide CAGCAGCAGAGTCTTCATCAT, phosphorothioate backbone, 2′-O-methoxyethyl at nucleotides 1-4 and 18-21, 5-methylcytosines at 1, 4, 19 (antisense e[5mC]*eA*eG*e[5mC]*dA*dG*dC*dA*dG*dA*dG*dT*dC*dT*dT*dC*dA*eT*e[5mC]*eA*eT; listed as Homo sapiens)”?
cancer condition of patients (breast cancer): improves; Max BW (mean) reduction ([1]; Custirsen 40 mg/kg ip qd*5, twk, day 34): −4.7%; % TGI day 51 [1, 2]: 46* %; No. of CR [1, 2]: 0; No. of PR [1, 2]: 0; No. of TRD [1, 2]: 1; No. og nTRD [1, 2]: 0; Δ mean tumor volume, (mean ± se) [1, 2]: 667 ± 87; % TGI day 51 ([1]; Custirsen 40 mg/kg ip qd*5, twk, day 51, listed as Custersin): 46%; volume [1, 3]: 649.2; weight [1, 3]: 19.8; Δ % (weight) [1, 3]: 5.3%; Δ volume [1, 3]: 503.8; Δ weight [1, 3]: 1.0; % of baseline (weight) [1, 4]: 105.6% and 110.6% and 103.7% and 103.8% and 102.1% and 113.0% and 103.2% and 101.2%; volume [1, 4]: 495 and 354 and 689 and 763 and 717 and 1076 and 483 and 593 and 671; weight [1, 4]: 18.73 and 18.93 and 21.36 and 20.43 and 19.03 and 20.83 and 20.79 and 18.98 and 19.13; Δ % (weight) [1, 4]: 5.6% and 10.6% and 3.7% and 3.8% and 2.1% and 13.0% and 4.2% and 3.2% and 1.2%; Δ volume [1, 4]: 371.9 and 229.1 and 550.6 and 621.8 and 571.9 and 925.7 and 329.0 and 431.2 and 502.7; Δ weight [1, 4]: 1.0 and 1.8 and 0.8 (3×) and 0.4 and 2.4 and 0.6 and 0.2; volume [1, 5]: 812.8; weight [1, 5]: 19.8; Δ % (weight) [1, 5]: 5.3%; Δ volume [1, 5]: 667.3; Δ weight [1, 5]: 1.0; % of baseline (weight) [1, 6]: 103.8% and 109.8% and 102.5% and 102.7% and 114.2% and 100.4%; volume [1, 6]: 687 and 392 and 817 and 923 and 1031 and 1324 and 603 and 734 and 804; weight [1, 6]: 18.40 and 18.79 and 21.71 and 20.17 and 19.13 and 21.06 and 20.78 and 18.47 and 19.87; Δ % (weight) [1, 6]: 3.8% and 9.8% and 5.4% and 2.5% and 2.7% and 14.2% and 4.2% and 0.4% and 5.1%; Δ volume [1, 6]: 563.6 and 267.5 and 678.0 and 781.6 and 885.6 and 1173.4 and 448.7 and 571.8 and 635.5; Δ weight [1, 6]: 0.7 and 1.7 and 1.1 and 0.5 (2×) and 2.6 and 0.8 and 0.1 and 1.0; % of baseline (weight) [1, 7]: 105.6% and 110.0% and 108.4%; volume [1, 7]: 797 and 560 and 1319; weight [1, 7]: 18.72 and 18.84 and 22.31; Δ % (weight) [1, 7]: 5.6% and 10.0% and 8.4%; Δ volume [1, 7]: 673.0 and 435.6 and 1180.5; Δ weight [1, 7]: 1.0 and 1.7 (2×); % of baseline (weight) [1, 8]: 112.4% and 108.7%; volume [1, 8]: 1127 and 848 and 2000; weight [1, 8]: 18.57 and 19.25 and 22.39; Δ % (weight) [1, 8]: 4.7% and 12.4% and 8.7%; Δ volume [1, 8]: 1003.4 and 723.2 and 1861.0; Δ weight [1, 8]: 0.8 and 2.1 and 1.8; weight [1, 9]: 20.3; Δ weight [1, 9]: 1.5; volume [1, 10]: 1278.9; Δ volume [1, 10]: 1133.5; % of baseline [1, 9]: 108.0%; Δ % [1, 9]: 8.0%; weight [1, 11]: 20.77 and 19.53 and 21.42 and 21.45 and 19.51 and 20.43; Δ weight [1, 11]: 1.1 (2×) and 0.9 and 3.0 and 1.5 (2×); volume [1, 12]: 1418 and 1693 and 1970 and 1060 and 1218 and 1475; Δ volume [1, 12]: 1277.2 and 1547.4 and 1819.3 and 905.2 and 1056.5 and 1306.4; % of baseline [1, 11]: 116.2% and 107.5% and 108.1%; Δ % [1, 11]: 5.5% and 4.8% and 16.2% and 7.5% and 6.0% and 8.1%; Day 41 % of baseline (weight) [1, 13]: 101.5%; Day 41 volume [1, 13]: 395.4; Day 41 weight [1, 13]: 19.1; Day 45 volume [1, 13]: 527.3; Day 45 weight [1, 13]: 19.9; Day 41 Δ % (weight) [1, 13]: 1.5%; Day 41 Δ volume [1, 13]: 249.9; Day 41 Δ weight [1, 13]: 0.3; Day 45 Δ % (weight) [1, 13]: 5.6%; Day 45 Δ volume [1, 13]: 381.9; Day 45 Δ weight [1, 13]: 1.0; Day 20 volume [1, 14]: 142.8; Day 20 weight [1, 14]: 18.5; Day 27 % of baseline (weight) [1, 14]: 102.6%; Day 27 volume [1, 14]: 219.2; Day 27 weight [1, 14]: 19.0; Day 34 % of baseline (weight) [1, 14]: 95.3%; Day 34 volume [1, 14]: 263.1; Day 34 weight [1, 14]: 17.7; Day 27 Δ % (weight) [1, 14]: 2.6%; Day 27 Δ volume [1, 14]: 76.4; Day 27 Δ weight [1, 14]: 0.4; Day 34 Δ % (weight) [1, 14]: −4.7%; Day 34 Δ volume [1, 14]: 120.3; Day 34 Δ weight [1, 14]: −0.8; Day 20 volume [1, 15]: 119 and 124 and 125 and 139 and 141 and 145 and 151 and 155 and 162 and 169; Day 20 weight [1, 15]: 16.1 and 17.7 and 17.1 and 20.6 and 19.7 and 18.6 and 18.4 (2×) and 20.0 and 18.9; Day 27 % of baseline (weight) [1, 15]: 113.2% and 102.5% and 100.3% and 98.7% and 102.4% and 101.7% and 100.5%; Day 27 volume [1, 15]: 96 and 207 and 171 and 249 and 222 and 246 and 319 and 193 and 217 and 271; Day 27 weight [1, 15]: 18.2 (2×) and 18.0 and 20.8 and 19.7 and 18.4 and 18.9 and 20.3 and 18.6 and 19.0; Day 34 % of baseline (weight) [1, 15]: 84.3% and 98.1% and 99.6% and 94.5% and 97.3% and 96.5% and 98.9% and 95.3% and 93.3% and 95.4%; Day 34 volume [1, 15]: 98 and 244 and 223 and 257 and 305 and 336 and 371 and 220 and 266 and 312; Day 34 weight [1, 15]: 13.5 and 17.4 and 17.1 and 19.5 and 19.1 and 18.0 (2×) and 18.2 and 19.0 and 17.2; Day 41 % of baseline (weight) [1, 15]: 100.4% and 100.3% and 99.5% and 95.8% and 100.1% and 104.4% and 101.6%; Day 41 volume [1, 15]: 454 and 474 and 560 and 267 and 320 and 457 and 410 and 295 and 322; Day 41 weight [1, 15]: 19.8 and 18.7 and 19.5 and 19.9 and 17.6 and 18.9 and 18.8 and 17.9 and 20.9; Day 45 % of baseline (weight) [1, 15]: 104.1% and 102.7% and 111.4% and 101.5% and 108.1% and 109.8%; Day 45 volume [1, 15]: 587 and 584 and 826 and 467 and 428 and 490 and 511 and 272 and 579; Day 45 weight [1, 15]: 20.5 and 19.1 (2×) and 20.6 and 21.1 and 18.7 and 19.2 and 18.8 and 21.9; Day 27 Δ % (weight) [1, 15]: 13.2% and 2.5% and 4.8% and 1.1% and 0.3% and −1.3% and 2.4% and 1.7% and 0.8% and 0.5%; Day 27 Δ volume [1, 15]: −23.1 and 84.0 and 46.2 and 110.4 and 81.2 and 100.3 and 168.8 and 38.8 and 55.3 and 102.6; Day 27 Δ weight [1, 15]: 2.1 and 0.4 (2×) and 0.8 and 0.2 (2×) and 0.1 (2×) and −0.3 and 0.3; Day 34 Δ % (weight) [1, 15]: −15.7% and −1.9% and −0.4% and −5.5% and −2.7% and −3.5% and −1.1% and −4.7% and −6.7% and −4.6%; Day 34 Δ volume [1, 15]: −20.6 and 120.3 and 97.9 and 117.8 and 163.9 and 190.8 and 219.9 and 65.4 and 104.3 and 142.9; Day 34 Δ weight [1, 15]: −2.5 and −0.3 and −0.1 and −1.1 and −0.5 and −0.6 and −0.2 and −0.9 (2×) and −1.2; Day 41 Δ % (weight) [1, 15]: 0.4% and 0.3% and 5.9% and −0.5% and −4.2% and 0.1% and 6.0% and 4.4% and 1.6%; Day 41 Δ volume [1, 15]: 313.0 and 328.4 and 409.6 and 112.3 and 157.8 and 288.2 and 286.2 and 170.4 and 183.5; Day 41 Δ weight [1, 15]: 0.1 (2×) and 1.1 (2×) and −0.1 and −0.8 and 0.0 and 0.8 and 0.3; Day 45 Δ % (weight) [1, 15]: 4.1% and 2.7% and 11.4% and 5.6% and 1.5% and 1.3% and 8.1% and 9.8% and 6.1%; Day 45 Δ volume [1, 15]: 446.1 and 439.0 and 675.2 and 313.0 and 266.0 and 321.7 and 388.0 and 147.2 and 440.5; Day 45 Δ weight [1, 15]: 0.8 and 0.5 and 2.1 and 1.1 and 0.3 and 0.2 and 1.4 and 1.7 and 1.3; weight [1, 16]: 20.5; Δ weight [1, 16]: 1.6; volume [1, 17]: 1717.4; Δ volume [1, 17]: 1572.6; % of baseline [1, 16]: 108.3%; Δ % [1, 16]: 8.3%; weight [1, 18]: 21.04 and 22.19 and 19.81 and 20.11; Δ weight [1, 18]: 1.4 (2×) and 2.2 and 1.2; volume [1, 19]: 2185 and 1918 and 1519 and 2426; Δ volume [1, 19]: 2043.7 and 1763.0 and 1357.1 and 2257.1; % of baseline [1, 18]: 106.9% and 111.2% and 107.7% and 106.4%; Δ % [1, 18]: 6.9% and 11.2% and 7.7% and 6.4%; mice died ([1]; custirsen 40 mg/kg group, day 34): one; injections given before treatment was stopped due to toxicity ([1]; custirsen 40 mg/kg, both groups (5 consecutive + 2 on the next week)): 7 injections; tumor growth inhibition by the end of the study ([1]; custirsen 40 mg/kg, either alone or in combination): significantly inhibited tumor growth
